Structures can show the parent of a compound that is named as a salt. Bridge positions count the residues as written; N and C are the ends. Square brackets hold non-standard residues; d marks the D form. Peptide text beside a SMILES is read from it. * marks the point of attachment. X1 = CC[C@H](C)CCCCC(=O)*; Dab = NCC[C@H](N)C(=O)O
Key:
[1] = test system: Acinetobacter baumannii 10591; assay: MIC by broth microdilution; format: cell-based; details: Mueller-Hinton broth, 5 x 10^5 CFUs/mL, 37 °C, 24 h
Experimental: (§1) Antimicrobial effects of the colistin and CCM-CL against P. aeruginosa ATCC 27853, A. baumannii BCRC 10591, and P. aeruginosa 048,431 were determined by the minimal inhibitory concentration (MIC). P. aeruginosa ATCC […] and A. baumannii BCRC 10591 are standard strains; they were purchased from the American Type Culture Collection and Biosource Collection and Research Center, Taiwan, respectively. P. aeruginosa 048431 is a carbapenem-resistant blood isolate from a patient with lung adenocarcinoma and ventilator-associated pneumonia. The broth microdilution method determined the MICs for the study drugs. Briefly, serial doubling dilutions of antimicrobial agents were made in a Mueller–Hinton broth. The final bacterial suspension in the mixture was adjusted to 5 × 10^5 CFUs/mL, and the exact colony count was measured by plating 10-fold serially diluted specimens of 100 μL aliquots on drug-free nutrient agar (Difco Laboratories, Franklin, NJ, USA). The mixtures of bacteria and drugs were incubated at 37 °C for 24 h. The MIC is defined as the lowest antibiotic concentration preventing visible growth in broth.

[2] = test system: Pseudomonas aeruginosa 048431 (carbapenem-resistant blood isolate); assay: MIC by broth microdilution; format: cell-based; details: Mueller-Hinton broth, 5 x 10^5 CFUs/mL, 37 °C, 24 h
Experimental: as §1

[3] = test system: Pseudomonas aeruginosa ATCC27853; assay: MIC by broth microdilution; format: cell-based; details: Mueller-Hinton broth, 5 x 10^5 CFUs/mL, 37 °C, 24 h
Experimental: as §1

male C57BL/6 mice = assay: No observed adverse effect level (NOAEL), up-and-down procedure; format: in vivo; details: for No. of Survival/Total Mice: 6 mg/mL, 8-week-old male C57BL/6 mice
Experimental: In the up-and-down method, animals were dosed one at a time. If an animal survived, the dose for the next animal increased; if it died, the next dose decreased. This test determined the safety of a single dose for intravenous bolus injection and 3 min infusion.

[4] = Pharmacokinetic study, plasma colistin after intravenous dosing; format: in vivo, Sprague-Dawley (SD) rats; details: male SD rats, iv 3 mg/kg for 15 min, LC-MS; for t1/2, elimination half-time T1/2(β): 3 rats per group, colistin one-compartment, CCM-CL two-compartment model (PKsolver), 3 mg/kg
Experimental: Chromatographic separation was performed by the ACQUITY UHPLC system (Waters Corporation, Milford, MA, USA) on a Phenomenex Kinetex EVO C18 column (150 mm × 4.6 mm; I.D. 5 μm) maintained at 25 ± 5 °C. The mobile phase consisted of solution ‘A’ (acetonitrile) and solution ‘B’ (0.05% trifluoroacetic acid in water, v/v). The percentage was initially set at 10% and increased to 60% within 5 min, using a flow rate of 0.5 mL/min. […] The total run time was 9 min, and the injection volume was 20 μL. We set the autosampler at 10 ± 5 °C. The ultra-performance liquid chromatography (UHPLC) was interfaced to an ACQUITY QDa detector (Waters Corporation) with electrospray ionization […] in positive mode used for detection. The optimized tuning parameters were as follows: capillary voltage, 0.3 kV; cone voltage, 8 V; and probe temperature, 600 °C. The mass transitions were m/z 585.5 for colistin A, 578.5 for colistin B, and 602.8 for polymyxin B (an internal standard).
Sample pre-treatment: Five microliters of polymyxin B (Toronto Research Chemicals, CAS number 1405-20-5) dissolved in water (420 μg/mL, an internal standard) was added to 100 μL rat plasma sample. After that, 400 μL of acetonitrile and 10% trichloroacetic acid mixed solution (50/50, v/v) was added. The samples were vortex-mixed for 1 min and then centrifuged at 12,000 rpm for 10 min. Following centrifugation, the supernatant was collected and filtered with 0.45 μm PVDF membrane filter for analysis.
The day before the pharmacokinetic study, the right carotid artery of each rat was cannulated for collection of blood samples. Following surgery, rats were individually housed in metabolic cages and were given 24 h for recovery. […] Blood plasma was collected at min 0, 15, 60, 120, and 180 following drug infusion. All blood samples were collected and transferred into an EDTA-K2 tube, and were then centrifuged at 1500 rcf for 10 min at 4 °C. The experiments were repeated three times. After centrifugation, the plasma was collected and examined by LC-MS. In previous pharmacokinetic studies, colistin is best described by the one-compartment linear model. […] CMS is hydrolyzed to form partially sulfomethylated derivatives as well as colistin sulfate, the active form of the drug. Like CMS, colistin is released from CCM-CL once ferrous ions in the CCM complex are captured by transferrin [34]. Therefore, we estimated the pharmacokinetics for colistin using the one-compartment model and CCM-CL using the two-compartment model. The data were analyzed using PKsolver (Microsoft Excel).

[5] = test system: carbapenem-resistant P. aeruginosa 048431 pneumonia; assay: Survival study in the neutropenic murine pneumonia model; format: in vivo; details: neutropenic (cyclophosphamide) male C57BL/6 mice, intratracheal P. aeruginosa 048431, 8 mg/kg iv 90 min after infection and again on day 2, n = 10
Experimental: (§2) Male C57BL/6 mice (21 to 23 g) were divided into three groups (namely control, free colistin, and CCM-CL), with 10 mice in each group. All animals were administered 150 mg/kg of cyclophosphamide intraperitoneally, 3 days and 1 day before infection. At day 0 (defined as infection day), mice were infected with 0.04 mL of a drug-resistant strain P. aeruginosa 048431, which was administered intratracheally at a concentration of 5 × 10^5 CFUs/mL. Ninety minutes later, water, free colistin, and CCM-CL were administered intravenously at 8 mg/kg. On day 2, free colistin and CCM-CL at a dose of 8 mg/kg and water were administered again (Figure 5).
Data were analyzed using WinSTATt (Microsoft Excel). Overall survival probabilities […] were estimated using the Kaplan–Meier method. The log-rank test (Cox–Mantel) was used to test significant differences in survival among groups.

[6] = test system: carbapenem-resistant P. aeruginosa (CRPA); assay: Bacterial load in lung of infected mice; format: in vivo, C57BL/6 mice; details: mice infected intratracheally, drug iv 1.5 h after infection, sacrificed 48 h later, lung homogenate 10-fold diluted, 48 h incubation
Experimental: as §2
This study was conducted and administered along with the survival assay. The pulmonary burden of P. aeruginosa was determined on the third day. Mice were sacrificed with carbon dioxide; then, their lungs were removed aseptically and rinsed with sterile saline. The lungs were treated with a homogenizer and then subjected to a 10-fold series of dilutions; 0.05 mL of each dilution was plated on dextrose agar. The plates were then incubated at 37 °C for 2 days, and the colonies were then enumerated.

SMILES: CC[C@H](C)CCCCC(=O)N[C@@H](CCN)C(=O)N[C@H](C(=O)N[C@@H](CCN)C(=O)N[C@H]1CCNC(=O)[C@H]([C@@H](C)O)NC(=O)[C@H](CCN)NC(=O)[C@H](CCN)NC(=O)[C@H](CC(C)C)NC(=O)[C@@H](CC(C)C)NC(=O)[C@H](CCN)NC1=O)[C@@H](C)O [Colistin, Colistin sulfate] (X1-[Dab]T[Dab][Dab][Dab][dL]L[Dab][Dab]T; lactam 4-C)
- Minimal inhibitory concentration [1]: 2
- Minimal inhibitory concentration [2]: 0.5
- Minimal inhibitory concentration [3]: 0.5
- No. of Survival/Total Mice (male C57BL/6 mice; intravenous bolus injection, single dose 8 mg/kg): 5/5
- No. of Survival/Total Mice (male C57BL/6 mice; intravenous bolus injection, single dose 13 mg/kg): 0/1
- No. of Survival/Total Mice (male C57BL/6 mice; intravenous bolus injection, single dose 20 mg/kg): 1/3
- Safe dosage (NOAEL), slow infusion (male C57BL/6 mice; single 3 min intravenous infusion, male C57BL/6 mice): 8 mg/kg
- Safe (NOAEL) dose, bolus (male C57BL/6 mice; single intravenous bolus injection, male C57BL/6 mice): 13 mg/kg
- No. of Survival/Total Mice (male C57BL/6 mice; slow infusion (3 min), single dose 13 mg/kg): 0/1
- AUC0–t ([4]; plasma sampled to 180 min): 239.31 mg·min/L
- AUC0–inf ([4]; plasma): 239.32 mg·min/L
- Cmax ([4]; plasma): 9030 ng/mL
- t1/2, elimination half-time T1/2(β) ([4]; plasma): 12.46 min
- t1/2, elimination half-time T1/2(β) ([4]; plasma, listed as free colistin): 102.23 min
- 14-day survival rate [5]: 30%
- Colony counts of CRPA isolated from the lungs [6]: 60 CFU
